Experimental data taken from US12661410B2, “Compounds for targeted degradation of RET” (C4 Therapeutics, Inc., priority 2020, dated 2026).
Residue numbers refer to the chain shown, from its start.

Tests used:
RET(KD: 658-1114 G810R) = molecular target: T1, RET(KD: 658-1114 G810R) (Homo sapiens, UniProt P07949, G810R); test: HiBiT-Degradation, RET G810R degradation assay (Nano-Glo HiBiT Lytic), 293T.165 cells; assay type: cell-based
T1 construct: 658-1114; expressed in transfected cells; host or cells: 293T.165 (293T cells, generated in-house)
T1 sequence (P07949 658-1114 G810R): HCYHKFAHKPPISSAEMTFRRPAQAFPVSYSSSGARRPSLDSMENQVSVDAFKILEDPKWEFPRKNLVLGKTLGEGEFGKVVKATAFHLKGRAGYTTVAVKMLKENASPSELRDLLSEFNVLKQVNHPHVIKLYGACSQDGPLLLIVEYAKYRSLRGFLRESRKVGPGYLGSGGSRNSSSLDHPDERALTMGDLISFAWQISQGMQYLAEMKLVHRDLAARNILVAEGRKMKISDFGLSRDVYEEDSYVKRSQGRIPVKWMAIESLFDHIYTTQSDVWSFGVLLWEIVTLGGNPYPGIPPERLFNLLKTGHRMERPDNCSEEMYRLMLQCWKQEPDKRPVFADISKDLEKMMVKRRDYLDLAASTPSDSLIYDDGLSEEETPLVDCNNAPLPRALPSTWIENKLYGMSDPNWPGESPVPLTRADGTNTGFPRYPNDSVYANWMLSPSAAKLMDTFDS
Method in brief: (§1)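 HEK293T lines stably expressing HiBiT-tagged RET kinase domain (WT: 293T.144; G810R: 293T.165) were treated with degraders for 6 h in duplicate, 11-point half-log series from 10 μM top dose. Lysis with Nano-Glo HiBiT Lytic reagent, luminescence read; DC50 and Emax (% remaining protein) derived from dose-response curves.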

RET (658-1114) = molecular target: T2, RET (658-1114) (Homo sapiens, UniProt P07949); test: HiBiT-Degradation, RET wild-type degradation assay (Nano-Glo HiBiT Lytic), 293T.144 cells; assay type: cell-based
T2 construct: 658-1114; expressed in transfected cells; host or cells: 293T.144 (293T cells, generated in-house)
T2 sequence (P07949 658-1114): T1 sequence (P07949 658-1114 G810R) with R153G
Method in brief: as §1

[1] = Body weight of mice bearing CTG-0838 tumors; assay type: in vivo; settings: after 21 days of daily treatment (5 mg/kg IV or 30 mg/kg PO)
Description: For PDX model CTG-0838, tumors were first grown in stock mice, then tumor fragments were harvested and inoculated into the left flank of female Athymic Nude-Foxn1nu mice for tumor development. Tumor volume and body weight were measured on designated days. Tumor volume was measured in two dimensions using a digital caliper, and volume (mm^3) was calculated using the formula: V=0.52 a×b^2 where a and b are the long and short diameters of the tumor in mm, respectively. Once tumors reached an average volume of 200-300 mm^3, the animals were divided randomly into groups of 3, stratified to result in about equal average tumor sizes in each treatment group, and dosing was initiated on Day 0.
Compound 122 was administered once a day intravenously (IV) at 5 mg/kg or orally (PO) at 30 mg/kg for 21 days. Compound 122 was formulated in 40% PEG400 and 60% of 10% hydroxypropyl beta cyclodextrin (HPPCD) in double distilled water, which was also used for the vehicle group. Body weight and tumor volume were measured on a 2× weekly schedule. Data are represented as MTV±SEM.

- 293T.165 RET(KD: 658-1114 G810R) 6.0 hours (IP) [nM] (RET(KD: 658-1114 G810R)): ++++ (<50 nM = ++++)
- Emax (RET(KD: 658-1114 G810R); 6.0 hours, % remaining protein, read-out: 293T.165 RET(KD: 658-1114 G810R) 6.0 hours (Emax)): < 30%
- DC50 (RET(KD: 658-1114 G810R); 6.0 hours, half-maximal degradation concentration, read-out: 293T.165 RET(KD: 658-1114 G810R) 6.0 hours (DC50)): < 50 nM
- 293T.144 RET (658-1114) 6.0 hours (IP) [nM] (RET (658-1114)): ++++ (<50 nM = ++++)
- Emax (RET (658-1114); 6.0 hours, % remaining protein, read-out: 293T.144 RET (658-1114) 6.0 hours (Emax)): < 30%
- DC50 (RET (658-1114); 6.0 hours, half-maximal degradation concentration, read-out: 293T.144 RET (658-1114) 6.0 hours (DC50)): < 50 nM
SMILES: CCC1(C(=O)NC(C)C)CCN(c2ccc(-c3nc(-c4cnn([C@H]5CC[C@H](N6CCC(c7ccc(NC8CCC(=O)NC8=O)cc7F)CC6)CC5)c4)cn4ncc(C#N)c34)cn2)CC1 (single isomer, unassigned) [Compound 122, 1-(5-(3-cyano-6-(1-((1r, 4r)-4-(4-(4-((2,6-dioxopiperidin-3-yl)amino)-2-fluorophenyl)piperidin-1-yl)cyclohexyl)-1H-pyrazol-4-yl)pyrazolo[1,5-a]pyrazin-4-yl)pyridin-2-yl)-4-ethyl-N-isopropylpiperidine-4-carboxamide]
- body weight loss [1]: No body weight loss
